Source: US7863478B2, “UV filters” (Merck Patent GmbH, priority 2004, dated 2011)

Tests used:
[1] = UV absorption (UV-VIS spectra in 2-propanol, 1 mg/100 ml); assay type: physicochemical; parameters: UV absorbance at λmax (1 mg/100 ml): unit not given here; details: 1 mg/100 ml; for UV absorbance at λmax (1 mg/100 ml): value in brackets after λmax in the synthesis example
Procedure: FIG. 1: UV absorption spectra of 1-hydroxy-3-[(E)-3-(4-methoxyphenyl)-2-propenoyloxy]-2-oxopropane (Example 1a) and 1-hydroxy-3-(2-cyano-3,3-diphenylacryloyloxy)-2-oxopropane (Example 1b) (in each case measured in 2-propanol at a concentration of 1 mg/100 ml)
FIG. 2: UV absorption spectra of 3-[4-(3-hydroxy-2-oxopropoxymethyl)benzylidene]-4,7,7-trimethylbicyclo[2.2.1]heptan-2-one (Example 9), N-(2,3-dihydroxypropyl)-(E)-3-(4-methoxyphenyl)acrylamide (Example 10a) and N-(2,3-dihydroxypropyl)-N-methyl-(E)-3-(4-methoxyphenyl)acrylamide (Example 10b) (in each case measured in 2-propanol at a concentration of 1 mg/100 ml).

| UV-VIS λmax [1] | UV absorbance at λmax (1 mg/100 ml) [1] | melting point | SMILES |
| --- | --- | --- | --- |
| 298.0 nm | 0.940 | 104 to 106 °C | COc1ccc(/C=C/C(=O)NCC(O)CO)cc1 (stereo not drawn) [Example 10a, N-(2,3-dihydroxypropyl)-(E)-3-(4-methoxyphenyl)acrylamide] |
| 301.0 nm | 0.934 | 81 to 83 °C | COc1ccc(/C=C/C(=O)N(C)CC(O)CO)cc1 (stereo not drawn) [Example 10b, N-(2,3-dihydroxypropyl)-N-methyl-(E)-3-(4-methoxyphenyl)acrylamide] |
| 301.0 nm | 0.947 | 152 to 153 °C | CN(C)c1ccc(C(=O)NCC(O)CO)cc1 (stereo not drawn) [Example 10d, N-(2,3-dihydroxypropyl)-4-dimethylaminobenzamide] |
| 301.0 nm | 0.947 | 77 to 79 °C | CCCCC(CC)COc1ccc(/C=C/C(=O)OCC(=O)COC(=O)/C=C/c2ccc(OCC(CC)CCCC)cc2)cc1 (stereo not drawn) [Example 23a] |
| 304.0 nm | 0.031 | 209 °C | N#CC(C(=O)OCC(=O)COC(=O)C(C#N)=C(c1ccccc1)c1ccccc1)=C(c1ccccc1)c1ccccc1 [Example 23b, 1,3-Bis-(2-cyano-3,3-diphenylacryloyloxy)-2-oxopropane] |

More lines, now with the values behind:

| SMILES | UV-VIS λmax [1] | UV absorbance at λmax (1 mg/100 ml) [1] | melting point |
| --- | --- | --- | --- |
| CN(C)c1ccc(C(=O)OCC(=O)CO[Si](C)(C)C(C)(C)C)cc1 [Example 2] | 299.0 nm | 0.67 | 91 to 92 °C |
| CN(C)c1ccc(C(=O)OCC(=O)CO)cc1 [Example 3, 3-Hydroxy-2-oxopropyl 4-dimethylaminobenzoate] | 311.0 nm | 1.213 | 129 to 131 °C |
| COc1ccc(/C=C/C(=O)NCC(O)CO[Si](C)(C)C(C)(C)C)cc1 (stereo not drawn) [Example 12, N-[3-(tert-butyldimethylsilyloxy)-2-hydroxypropyl]-(E)-3-(4-methoxyphenyl)acrylamide] | 291.0 nm | 0.481 | 107 to 109 °C |
| CN(C)c1ccc(C(=O)NCC(O)CO[Si](C)(C)C(C)(C)C)cc1 (stereo not drawn) [Example 15, N-[3-(tert-butyldimethylsilyloxy)-2-hydroxypropyl]-4-dimethylaminobenzamide] | 301.0 nm | 0.64 | 127 to 128 °C |
| COc1ccc(/C=C/C(=O)NCC(=O)CO[Si](C)(C)C(C)(C)C)cc1 [Example 17, N-[3-(tert-butyldimethylsilyloxy)-2-oxopropyl]-(E)-3-(4-methoxyphenyl)acrylamide] | 300.0 nm | 0.843 | 151 to 152 °C |
| COc1ccc(/C=C/C(=O)NCC(=O)CO)cc1 [Example 20, N-(3-hydroxy-2-oxopropyl)-(E)-3-(4-methoxyphenyl)acrylamide] | 294.0 nm | 0.941 | 160 to 162 °C |
| CCCCC(CC)COc1ccc(/C=C/C(=O)NCC(=O)CO)cc1 (stereo not drawn) [Example 21, N-(3-hydroxy-2-oxopropyl)-(E)-3-[4-(2-ethylhexyloxyphenyl)]acrylamide] | 307.5 nm | 0.706 | 155 to 157 °C |
| COc1ccc(/C=C/C(=O)OCC(=O)COC(=O)/C=C/c2ccc(OC)cc2)cc1 [Example 23, 1,3-Bis-[(E)-3-(4-methoxyphenyl)-2-propenoyloxy]-2-oxopropane] | 307.0 nm | 1.140 | 146 to 148 °C |
